Source: paper PMC9784828, “Antimicrobial Activity of Peptide-Coupled Antisense Peptide Nucleic Acids in Streptococcus pneumoniae” (Microbiology Spectrum, 2022)

Legend:
[1] = test system: Detroit 562 cells infected with S. pneumoniae TIGR4; assay: Cell-based infection model, bacterial CFU; design: species or system Streptococcus pneumoniae; conditions: MOI 5, 3 h at 37°C, n = 3
Protocol: Detroit 562 human pharyngeal epithelial cells were infected with S. pneumoniae TIGR4 at a multiplicity of infection (MOI) of 5. Cells were treated with 20 μM (RXR)4XB-anti-gyrA PNA or scrambled control PNA, respectively. As a positive control, 1 μg levofloxacin, corresponding to 3× MIC, was added. Following incubation for 3 h at 37°C, bacterial CFU counts were determined for CPP-antisense PNA-treated samples and compared to those in nontreated samples and in samples containing scrambled control PNAs (Fig. 4A). Treatment with (RXR)4XB-anti-gyrA caused a log CFU reduction of 1. Addition of levofloxacin led to a log CFU reduction of 2.
The human pharynx carcinoma epithelial cell line Detroit 562 (ATCC CCL138) was cultivated in Dulbecco’s modified Eagle medium (DMEM)/F12 (1:1) (Thermo Fisher Scientific, Schwerte, Germany) supplemented with 10% fetal bovine serum at 37°C and 5% CO2. Confluent Detroit 562 cells were infected with S. pneumoniae TIGR4 at an MOI of 5. Cultures were treated with 20 μM CPP-PNAs or 1 μg levofloxacin, respectively, and incubated for 3 h at 37°C, 5% CO2. After incubation, the supernatant was collected. Adherent cells were detached with Accutase solution (Merck KGaA, Darmstadt, Germany), collected by centrifugation for 10 min at 4,000 × g, and combined with the supernatant. Cells were pelleted by centrifugation, washed twice with PBS, and suspended in PBS. CFU/well was determined following serial dilution and plating on Todd Hewitt Broth, supplemented with Yeast, (THY) agar plates.

[2] = test system: G. mellonella larvae infected with S. pneumoniae TIGR4; assay: G. mellonella infection model, larval survival; assay type: in vivo, Galleria mellonella; conditions: 7 days; for Survival of infected larvae: 30 min postinfection, mock 19%, n = 40
Protocol: Antimicrobial efficiency of CPP-antisense PNA conjugates was evaluated in vivo employing a G. mellonella infection and treatment model ([22], [28]). Larvae were infected with S. pneumoniae strain TIGR4 and subsequently treated with 10 nmol CPP-anti-gyrA PNAs. Treatment with levofloxacin served as a positive control. Larval survival was observed over 7 days.
Larvae of the greater wax moth (G. mellonella) were obtained from Bugs-International GmbH (Irsingen/Unterfeld, Germany). For infection experiments, S. pneumoniae TIGR4 was grown for 7 h in BHI, washed twice in a 0.9% NaCl solution, and suspended in 0.9% NaCl to a final concentration of approximately 1 × 10^8 CFU/mL. Larvae weighing 150 to 200 mg were infected with 1 × 10^6 to 3 × 10^6 CFU/larva. Bacteria were injected into the hemocoel of the larvae between the last two pairs of prolegs using a microapplicator (World Precision Instruments, LLC, Sarasota, FL) and a fine-dosage syringe (Omnican-F, 0.01 to 1 mL, 0.30 × 12 mm; B. Braun AG, Melsungen, Germany). As mock control, 0.9% NaCl (PNA experiment) or 0.9% NaCl/3% DMSO (levofloxacin experiment) was injected. For CPP-PNA treatment, larvae were injected 30 min postinfection with 10 nmol CPP-PNA/larva. For levofloxacin treatment, larvae were injected 30 min postinfection with 1 or 10 μg levofloxacin/larva. Larvae were incubated for 7 days, and survival was monitored daily ([22]).

[3] = test system: G. mellonella larvae infected with S. pneumoniae TIGR4; assay: G. mellonella infection model, bacterial load; assay type: in vivo, Galleria mellonella; conditions: 24 h postinfection
Protocol: To establish the antibacterial effect of PNAs in the invertebrate infection model, we assessed the bacterial loads in infected larvae (Fig. 6). Larvae were infected and subsequently treated with NaCl (mock), 10 nmol CPP-PNA, or levofloxacin (positive control), respectively. From each group, four larvae were homogenized at 24 h postinfection. CFU/larva were determined following serial dilutions of the suspension and plating on selective medium. Treatment with (RXR)4XB-anti-gyrA caused a log CFU reduction of 1 compared to that in the mock-treated larvae. The addition of 1 or 10 μg levofloxacin led to a log CFU reduction of 2 or 6, respectively.
For determination of bacterial load, larvae were infected and subsequently treated with NaCl (mock), CPP-PNAs, or levofloxacin (positive control). At 24 h after infection, larvae were homogenized. Following serial dilution, the suspension was plated on selective medium (BD Columbia CNA Agar with 5% sheep blood; Becton Dickinson GmbH, Heidelberg, Germany). Agar plates were incubated overnight at 37°C, 5% CO2. CFU/larva was determined by visual inspection. Colony identity was verified on a random basis by colony PCR using ply-specific primers.

[4] = test system: S. pneumoniae TIGR4; assay: Bacterial killing assay (CFU/mL reduction after 6 h); assay type: cell-based, Streptococcus pneumoniae; conditions: TIGR4
Protocol: The impact of different CPPs on the efficacy of antisense PNAs targeting gyrA and rpoB in S. pneumoniae was tested using an in vitro killing assay ([25]). S. pneumoniae strains were incubated for 6 h with CPP-antisense PNA conjugates. We determined the reduction of bacterial CFU/mL caused by different CPP-coupled antisense PNA constructs compared to an untreated control. Three different CPPs were tested: HIV-1 TAT (TAT), oligolysin (K8), and (RXR)4XB (Table 1). Concentration-dependent bactericidal activity was investigated by treatment of S. pneumoniae TIGR4 in a CPP-antisense PNA conjugate concentration range of 2.5 to 20 μM (Fig. 1).
After culturing S. pneumoniae strains in BHI, D39 and 19F were diluted to approximately 10^5 CFU/mL in phosphate-buffered saline (PBS):BHI (93%:7%), while TIGR4 was diluted to approximately 10^5 CFU/mL in PBS:BHI (96%:4%). Next, 450-μL volumes of the respective bacterial suspensions, containing approximately 0.5× 10^5 CFU, were transferred to 2-mL reaction tubes. A 50-μL volume of PNA solution was added to a final PNA concentration of 1 to 20 μM or as indicated. Fifty μL H2O served as a mock control. The reaction tubes were incubated for 6 h at 37°C and 7 rpm (Rotor SB3; Stuart, Staffordshire, United Kingdom). The concentration of CPP-PNA that reduced CFU/mL by 50% after 6 h of incubation compared to an untreated control (IC50) was calculated by nonlinear regression analysis using GraphPad Prism software (GraphPad Software, San Diego, CA).

[5] = test system: S. pneumoniae TIGR4; assay: In vitro time-killing assay (killing kinetics); assay type: cell-based, Streptococcus pneumoniae; conditions: 10 μM, samples every 2 h up to 12 h, n = 3
Protocol: The antimicrobial activity kinetics of TAT- and (RXR)4XB-conjugated anti-gyrA PNA constructs in S. pneumoniae TIGR4 were studied using an in vitro time-killing assay. Bacteria were treated with 10 μM CPP-antisense PNAs or scrambled control PNAs (Fig. 2). Samples were collected every 2 h following antisense treatment. CFU/mL was determined by plating of serial dilutions and plotted over time. […] In contrast, (RXR)4XB-conjugated anti-gyrA PNA treatment led to a continuous reduction in S. pneumoniae CFU until complete eradication after 12 h.
For monitoring of killing kinetics, samples were collected 2 to 12 h post-treatment. Viable cell counts were determined by plating appropriate dilutions on BHI agar plates. CFU were determined by visual inspection following overnight incubation at 37°C under a 5% CO2 atmosphere. At time point 0, the viable cell count corresponded to 1 × 10^5 to 3 × 10^5 CFU/mL.

Molecule: C[C@H]1COc2c(N3CCN(C)CC3)c(F)cc3c(=O)c(C(=O)O)cn1c23 [levofloxacin, reference compound]
- log CFU reduction in infected Detroit 562 cells ([1]; 1 μg levofloxacin, corresponding to 3× MIC): 2
- Survival of infected larvae ([2]; 1 μg levofloxacin/larva (approx. 2.5× MIC)): 40%
- Increase of survival rate ([2]; 1 μg levofloxacin/larva): 21%
- Survival of infected larvae ([2]; 10 μg levofloxacin/larva (approx. 25× MIC)): 74%
- log CFU reduction of bacterial load compared to mock-treated larvae ([3]; 1 μg levofloxacin): 2
- log CFU reduction of bacterial load compared to mock-treated larvae ([3]; 10 μg levofloxacin): 6

Molecule: KKKKKKKK-eg-tgcattaata [K8-anti-gyrA PNA, Oligolysin (K8) coupled to antisense PNA against gyrA]
- Reduction of bacterial CFU/mL compared to untreated control (in words) ([4]; 6 h, concentration range 2.5 to 20 μM, n = 5): no reduction of CFU/mL

Molecule: RXRRXRRXRRXRXB-eg-aatgattact [(RXR)4XB-anti-gyrA scPNA, (RXR)4XB-coupled scrambled control PNA for anti-gyrA]
- Bacterial counts over time (in words) [5]: did not cause reduced bacterial counts
- log CFU reduction in infected Detroit 562 cells ([1]; 20 μM CPP-PNA): No significant changes in bacterial CFU
- log CFU reduction of bacterial load compared to mock-treated larvae ([3]; 10 nmol CPP-PNA/larva, n = 4 larvae per group, three experiments): no significant changes in the bacterial CFU

Molecule: TAT: unconjugated cell-penetrating peptide HIV-1 TAT (48–57) (GRKKRRQRRR; UniProt P04608 48-57, looked up, fragment) [reference compound]
- Antibacterial effects of unconjugated CPP (in words) ([4]; Fig. S3): higher than those of the conjugated peptides
